Experimental findings from US20020142297A1, “Compositions and methods for imaging gene expression” (The General Hospital Corporation, a Massachusetts …, priority 1997, published 2002) are described below.

Series [1] is described as follows: In vivo detection of RPCs in muscle tissue (gamma imaging after i.v. 99mTc gluceptate). To be noted: rats, rectus femoris muscle injected with RPC; 1 hour after i.v. injection of 0.5 mCi 99mTc gluceptate. The protocol: RPCs having the sequences GGGCGGGCGGGC (SEQ ID NO: 13) and GGGCGGGC (SEQ ID NO: 14) were dissolved in sterile saline to give a concentration of 1 μM thiol (i.e., the —SH function groups of cysteine residues). 100 μl of this solution was injected into the rectus femoris muscles of anesthetized rats. Ten minutes after injection, 0.5 mCi of ^99mTc gluceptate-[bis(oxotechnetate(v)glucoheptonate] anion was injected via intravenous catheter. The animals were imaged at 10 minutes and at 1 hour after the injection of the isotope. It was suspected that Tc glucoheptonate can permeate into the interstitium and be taken up non-specifically (e.g., by pinocytosis) by resident cells, thus creating background activity.
Nonetheless, the radioactivity that had accumulated in the injected muscle 1 hour after injection with the RPC containing three consecutive GGGC repeats (SEQ ID NO: 13) or two consecutive GGGC repeats (SEQ ID NO: 14) were 3- or 2-fold higher, respectively, than the radioactivity that had accumulated in the contralateral (control) muscle at that time. No differences in radioactivity accumulated in injected vs. control muscles were detected in animals injected with saline, or an RPC pretreated with N-ethylmaleimide to block oxotechnetate-binding sites.

A short description of series [2]: Labeling of RPC with 99mTc-glucoheptonate and stability of the metal-RPC complex by reverse-phase HPLC. Type of series: binding. The method, then: The tetrapeptide WGGC (SEQ ID NO: 1) was incubated with ^99mTc-gluccheptonate. […] The label was ascertained to be stably associated with the peptide for at least 24 hours as determined by reverse-phase high performance liquid chromatography (HPLC) (see, FIG. 7).
FIGS. 6 and 7 are the HPLC traces corresponding to the binding 30 minutes and 24 hours post-injection, respectively. In both traces, the bold line represents radioactivity and the thin line represents absorbance. The naked ^99mTc-glucoheptonate has a retention time of 2 minutes, while the RPC-Tc complex has a retention time of 5 to 9 minutes.

In the case of GGGCGGGCGGGC [SEQ ID NO: 13], the “radioactivity accumulated in the injected muscle vs. the contralateral (control) muscle” value in series [1] was found to be 3 fold.

With “GGGCGGGC [SEQ ID NO: 14, RPC containing two consecutive GGGC repeats]”, the “radioactivity accumulated in the injected muscle vs. the contralateral (control) muscle” value in series [1] is listed as 2 fold.

Turning to WGGC, in series [2] (30 minutes, HPLC radioactivity trace (FIG. 6)), the “radiation at 2 minutes (retention time of naked 99mTc-glucoheptonate)” value is listed as “no radiation is observed above the baseline”. For the same substance, the “share of total integral at 2 minutes (retention time of naked 99mTc-glucoheptonate)” value in series [2] (24 hours, HPLC radioactivity trace (FIG. 7)) stood at 0.468%. Moreover, in series [2] (incubated with 99mTc-glucoheptonate, within 30 minutes), the “labeling of the peptide” value is 99%. Moreover, the “time the label is stably associated with the peptide” value in series [2] (reverse-phase HPLC) is listed as “at least 24 hours”.
